Data on eleven compounds can be found in PubChem BioAssay (NCI).

Some test systems named below: CAKI-1 renal; HCT-116 colon; TK-10 renal; SR leukemia; COLO 205 colon; UACC-257 melanoma; KM12 colon; RXF 393 renal; MCF7 breast; CCRF-CEM leukemia.
Assay in all cases: growth of human tumour cells (NCI), 48 h

Where “and” joins values, the source holds several entries; their conditions need not be identical. Equal values may be shown once.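 How tested: cells in 96-well plates exposed to compound for 48 hours at five concentrations. Abbreviation: GI50, concentration required for 50% inhibition of growth. TGI: concentration producing complete growth inhibition.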

`O=S(=O)(NC1=NCCN1C(=S)SN1CCn2c1nsc2=S)c1ccc(Cl)cc1`: the GI50 in the assay on CAKI-1 renal was 6.49 µM; with HCT-116 colon it was 5.15 µM; in the assay with TK-10 renal, 12.3 µM; with SR leukemia it was 2.4 µM; with COLO 205 colon, 4.36 µM; in the assay on UACC-257 melanoma it was 10.8 µM. Also, the GI50 in the assay on KM12 colon is 15.9 µM; in the assay on RXF 393 renal, 3.09 µM; with MCF7 breast, 2.78 µM. In addition, the TGI with CAKI-1 renal came out at 27.7 µM; in the assay with HCT-116 colon, 21.1 µM; in the assay with TK-10 renal, 25.6 µM; with SR leukemia, 6.51 µM; in the assay with COLO 205 colon it was 14.8 µM; in the assay with UACC-257 melanoma, 29.4 µM. Moreover, the TGI in the assay on KM12 colon is 33.6 µM; in the assay with RXF 393 renal it was 34.4 µM; in the assay with MCF7 breast it was 17.1 µM.
As for `COC1(OC)C2(Cl)C3=CCCC=C3C1(Cl)C(Cl)=C2Cl`, the TGI was 84.2 µM with CAKI-1 renal; 43.9 µM with HCT-116 colon; > 100 µM in the assay on TK-10 renal; 53.5 µM in the assay on SR leukemia; 37.7 µM in the assay on COLO 205 colon; 75.1 µM in the assay on UACC-257 melanoma. For the same compound, the TGI in the assay on KM12 colon is > 100 µM; with CCRF-CEM leukemia, 42.4 µM; in the assay with RXF 393 renal, 47.8 µM.
In the case of `C/C(=N/NC(=S)Nc1ccccc1)c1nc2ccc(Cl)cc2[nH]1`, the GI50 in the assay on HCT-116 colon is 0.0811 µM; with TK-10 renal, 0.539 µM; in the assay with SR leukemia, 0.0881 µM; in the assay on UACC-257 melanoma, 0.236 µM; in the assay with KM12 colon, 0.14 µM; in the assay on CCRF-CEM leukemia it was 0.039 µM. For the same compound, the GI50 in the assay on RXF 393 renal is 0.165 µM. For the same compound, the TGI in the assay on HCT-116 colon amounted to 0.771 µM; in the assay on TK-10 renal, 2.61 µM; in the assay on SR leukemia, 1.23 µM; in the assay on UACC-257 melanoma it was 0.85 µM; in the assay with KM12 colon, 0.826 µM; in the assay on CCRF-CEM leukemia, 7.18 µM. In addition, in the assay with RXF 393 renal, the TGI came to 0.783 µM.
With `Cn1c(=O)oc2cc(C3CCC(=O)N3Cc3csc(-c4ccccc4)n3)ccc21` (stereo not given), the TGI with CAKI-1 renal, in the assay on HCT-116 colon, with TK-10 renal, in the assay on SR leukemia, in the assay with COLO 205 colon and in the assay with UACC-257 melanoma was > 100 µM each time. Further, the TGI with KM12 colon, in the assay on CCRF-CEM leukemia and in the assay on RXF 393 renal was > 100 µM in each case.
Consider `O=c1c(Cc2ccccc2)c(O)cc2n1CCC2`, for which the TGI in the assay with CAKI-1 renal, in the assay with HCT-116 colon, in the assay on TK-10 renal, with SR leukemia, with COLO 205 colon and with UACC-257 melanoma was > 100 µM each time. The TGI in the assay on KM12 colon, in the assay with CCRF-CEM leukemia and with RXF 393 renal was > 100 µM throughout.
Consider `COc1ccc2[nH]c(C(=O)N3CCN(C(=O)OCc4ccc5c(Cl)cc(Cl)c(O)c5n4)CC3)cc2c1`, for which the GI50 was 0.357 µM in the assay on CAKI-1 renal; 0.295 µM in the assay on HCT-116 colon; 1.42 µM in the assay on TK-10 renal; 0.232 µM with SR leukemia; 0.85 µM with COLO 205 colon; 1.41 µM in the assay with UACC-257 melanoma. Further, the GI50 in the assay with KM12 colon is 1.69 µM; in the assay on CCRF-CEM leukemia, 0.275 µM; in the assay on RXF 393 renal it was 0.557 µM. The TGI with CAKI-1 renal is 1.65 µM; with HCT-116 colon, 1.35 µM; in the assay on TK-10 renal it was 2.72 µM; in the assay with SR leukemia it was 1.05 µM; in the assay with COLO 205 colon, 2.48 µM; in the assay on UACC-257 melanoma, 2.8 µM. Further, the figures for the TGI in the assay with KM12 colon, with CCRF-CEM leukemia and in the assay with RXF 393 renal were 3.68 µM, 1.67 µM and 1.81 µM, respectively.
On to `COc1cc(C2CC(c3ccc(Nc4nc(NCCO)nc(NCCO)n4)cc3)=NN2c2cc(Cl)cc(Cl)c2)cc(OC)c1OC` (stereo not given), for which the GI50 is 1.28 µM in the assay on HCT-116 colon; 2.01 µM in the assay on TK-10 renal; 1.29 µM in the assay with SR leukemia; 2.7 µM in the assay with COLO 205 colon; 1.86 µM in the assay on UACC-257 melanoma; 1.53 µM in the assay with KM12 colon. Also, the GI50 is 2.53 µM with CCRF-CEM leukemia, 0.568 µM with RXF 393 renal and 1.26 µM in the assay with MCF7 breast. In addition, the TGI with HCT-116 colon amounted to 2.67 µM; in the assay on TK-10 renal it was 4.45 µM; in the assay on SR leukemia, 4.11 µM; with COLO 205 colon it was 9.29 µM; with UACC-257 melanoma it was 3.87 µM; in the assay on KM12 colon it was 3.21 µM. Besides, the results for the TGI in the assay on CCRF-CEM leukemia, with RXF 393 renal and in the assay with MCF7 breast were 10.7 µM, 2.34 µM and 2.94 µM, respectively.
For `O=c1c(-c2ccc3c(c2)OCO3)coc2c3c(ccc12)OCO3`, the TGI in the assay on CAKI-1 renal is > 100 µM; with HCT-116 colon, > 100 µM; in the assay with TK-10 renal it was 36.8 µM; in the assay on SR leukemia it was > 100 µM; with COLO 205 colon, > 100 µM; in the assay on UACC-257 melanoma, > 100 µM. Besides, the TGI with KM12 colon was > 100 µM; in the assay with CCRF-CEM leukemia it was > 100 µM; in the assay with MCF7 breast, 33.7 µM.
As for `CCOc1c(Br)cc(Br)cc1C=C(C#N)C#N`, the TGI in the assay on HCT-116 colon, in the assay on TK-10 renal, with SR leukemia, in the assay with COLO 205 colon, in the assay with KM12 colon and in the assay with CCRF-CEM leukemia was > 10 µM throughout. The TGI with RXF 393 renal and with MCF7 breast was > 10 µM throughout.
For the compound `O=c1[nH]ccc(CNC23CC4CC(CC(C4)C2)C3)c1O`, the TGI in the assay with CAKI-1 renal, in the assay with HCT-116 colon, in the assay on TK-10 renal, in the assay with SR leukemia, in the assay with COLO 205 colon and with UACC-257 melanoma was > 100 µM in each case. In addition, the TGI with KM12 colon, in the assay on CCRF-CEM leukemia and in the assay on RXF 393 renal was > 100 µM in each case.
Consider `OCC(O)C(O)C(O)C(/C=N\Nc1ncnc2c(Br)cc(Br)cc12)=N/Nc1ncnc2c(Br)cc(Br)cc12` (stereo not given), for which the TGI in the assay with CAKI-1 renal is 26.7 µM and > 100 µM; in the assay on HCT-116 colon, > 100 µM; in the assay on TK-10 renal it was 28.1 µM and > 100 µM; in the assay on SR leukemia, 17.3 µM and > 100 µM; in the assay on COLO 205 colon, 13 µM and 22 µM; in the assay with UACC-257 melanoma, 33.2 µM and > 100 µM. In addition, the TGI in the assay on KM12 colon was 70.8 µM and > 100 µM; with MCF7 breast it was 37.4 µM and > 100 µM. Further, in the assay with HCT-116 colon, the GI50 is 19.1 µM and 3.44 µM.
